Experimental data taken from patent US11000033B2, “Ketone or oxime compound, and herbicide” (NISSAN CHEMICAL CORPORATION, priority 2014, dated 2021).

Tests used:
Format in all cases: in vivo
[1] = test system: Echinochloa crus-galli var. crus-galli; test: Test Example 4: herbicidal effect by soil treatment (symbol H); settings: application herbicide amount 320 g/ha
Summary of the method: (§1)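 Seeds were sown in sterilized diluvial soil, covered with about 1.5 cm of soil, and the soil surface was sprayed with a water-diluted emulsion of the compound at a predetermined rate. Plants grew in a greenhouse at 25° C. to 30° C.; effects were scored visually 3 weeks after application.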

Abutilon theophrasti = test: Test Example 4: herbicidal effect by soil treatment (symbol M); settings: application herbicide amount 320 g/ha
Summary of the method: as §1

soybean [2] = test: Test Example 4: effect on crop by soil treatment (symbol d); settings: application herbicide amount 320 g/ha
Summary of the method: (§2)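 Plants are raised in a greenhouse (25° C. to 30° C.) from spot-sown seed, which sits under about 1.5 cm of sterilized diluvial soil in a box shared with weed species.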

rice = test: Test Example 4: effect on crop by soil treatment (symbol b); settings: application herbicide amount 320 g/ha
Summary of the method: as §2

Lolium multiflorum Lam. [3] = test: Test Example 4: herbicidal effect by soil treatment (symbol K); settings: application herbicide amount 320 g/ha
Summary of the method: as §1

Amaranthus retroflexus = test: Test Example 5: herbicidal effect by foliage application, plastic box (symbol N); settings: 320 g/ha, 3 weeks after application
Summary of the method: (§3)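 Leaf-applied emulsion, water-diluted to a preset herbicide dose, on two-week-old seedlings raised in a 25° C. to 30° C. greenhouse; injury rated at 3 weeks using earlier criteria.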

[4] = test system: Echinochloa crus-galli var. crus-galli; test: Test Example 5: herbicidal effect by foliage application, plastic box (symbol H); settings: 320 g/ha, 3 weeks after application
Summary of the method: as §3

Veronica persica = test: Test Example 5: herbicidal effect by foliage application, plastic box (symbol R); settings: 320 g/ha, 3 weeks after application
Summary of the method: as §3

Lolium multiflorum Lam. [5] = test: Test Example 5: herbicidal effect by foliage application, plastic box (symbol K); settings: 320 g/ha, 3 weeks after application
Summary of the method: as §3

rapeseed = test: Test Example 5: effect on crop by foliage application, plastic box (symbol g); settings: 320 g/ha, 3 weeks after application
Summary of the method: (§4)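 Seeds were sown in spots in sterilized diluvial soil held in a plastic box 21 cm × 13 cm × 7 cm deep, covered with about 1.5 cm of soil, and grown in a greenhouse at 25° C. to 30° C.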

Digitaria ciliaris = test: Test Example 5: herbicidal effect by foliage application, plastic box (symbol F); settings: 320 g/ha, 3 weeks after application
Summary of the method: as §3

Monochoria vaginalis = test: Test Example 2: herbicidal activity, application during weed generation in submerged conditions (symbol C); settings: Table 23; application herbicide amount 320 g/ha; grade 0-5 by criteria of Test Example 1
Summary of the method: (§5)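 Alluvial soil in pots was flooded to a 4 cm water depth and sown with a mix of the three weed species, then grown in a greenhouse at 25° C. to 30° C. At the one- to two-leaf stage, an emulsifiable formulation diluted in water to a set dose was applied to the water surface. Effects were scored visually 3 weeks later.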

soybean [6] = test: Test Example 5: effect on crop by foliage application, plastic box (symbol d); settings: 320 g/ha, 3 weeks after application
Summary of the method: as §4

Avena fatua = test: Test Example 4: herbicidal effect by soil treatment (symbol I); settings: application herbicide amount 320 g/ha
Summary of the method: as §1

beet = test: Test Example 4: effect on crop by soil treatment (symbol f); settings: application herbicide amount 320 g/ha
Summary of the method: as §2

corn = test: Test Example 5: effect on crop by foliage application, plastic box (symbol c); settings: 320 g/ha, 3 weeks after application
Summary of the method: as §4

Scirpus juncoides = test: Test Example 2: herbicidal activity, application during weed generation in submerged conditions (symbol B); settings: Table 23; application herbicide amount 320 g/ha; grade 0-5 by criteria of Test Example 1
Summary of the method: as §5

wheat = test: Test Example 4: effect on crop by soil treatment (symbol e); settings: application herbicide amount 320 g/ha
Summary of the method: as §2

transplanted rice plant = test: Test Example 1: effect on crop, application before weed generation in submerged conditions (symbol a); settings: application herbicide amount 320 g/ha
Summary of the method: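 Rice at 2.5 leaf stage transplanted into submerged soil (4 cm depth) sown with three weed species; herbicide applied before weed emergence.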

Compound	Herbicidal effect grade, H: Echinochloa crus-galli var. crus-galli [1]	Herbicidal effect grade, M: Abutilon theophrasti (Abutilon theophrasti)	Effect on crop grade, d: soybean (soybean [2])	Effect on crop grade, b: directly sowed rice plant (rice)	Herbicidal effect grade, K: Lolium multiflorum Lam. (Lolium multiflorum Lam. [3])	N: Amaranthus retroflexus, herbicidal effect grade (Amaranthus retroflexus)	H: Echinochloa crus-galli var. crus-galli, herbicidal effect grade [4]	R: Veronica persica, herbicidal effect grade (Veronica persica)	K: Lolium multiflorum Lam., herbicidal effect grade (Lolium multiflorum Lam. [5])	g: rapeseed, effect on crop grade (rapeseed)	F: Digitaria ciliaris, herbicidal effect grade (Digitaria ciliaris)	Herbicidal effect grade, C: Monochoria vaginalis (Monochoria vaginalis)	d: soybean, effect on crop grade (soybean [6])	Herbicidal effect grade, I: Avena fatua (Avena fatua)	Effect on crop grade, f: beet (beet)	c: corn, effect on crop grade (corn)	Herbicidal effect grade, B: Scirpus juncoides (Scirpus juncoides)	Effect on crop grade, e: wheat (wheat)	H (Echinochloa crus-galli var. crus-galli) herbicidal effect grade [1]	Effect grade on crop, a: transplanted rice plant (transplanted rice plant)	also measured
CC(CC1CC(O)=C(c2c(C)cc(Br)cc2C)C1=O)=NOCC(=O)N(C)C (mixture of isomers) [9-029]	3 (Herbicidal ratio of 40% or higher and lower than 70%)	0 (Herbicidal ratio of 5% or lower (almost no effect))	0 (Herbicidal ratio of 5% or lower (almost no effect))	1 (Herbicidal ratio of 5% or higher and lower than 20%)	4 (Herbicidal ratio of 70% or higher and lower than 90%)	0 (Herbicidal ratio of 5% or lower (almost no effect))	3 (Herbicidal ratio of 40% or higher and lower than 70%)	0 (Herbicidal ratio of 5% or lower (almost no effect))	5 (Herbicidal ratio of 90% or more (almost completely withered))	4 (Herbicidal ratio of 70% or higher and lower than 90%)	3 (Herbicidal ratio of 40% or higher and lower than 70%)	0 (Herbicidal ratio of 5% or lower (almost no effect))	0 (Herbicidal ratio of 5% or lower (almost no effect))	0 (Herbicidal ratio of 5% or lower (almost no effect))	0 (Herbicidal ratio of 5% or lower (almost no effect))	4 (Herbicidal ratio of 70% or higher and lower than 90%)	0 (Herbicidal ratio of 5% or lower (almost no effect))	0 (Herbicidal ratio of 5% or lower (almost no effect))	–	–	–
CON=C(C)CC1CC(OC)=C(c2c(C)cc(C)cc2C)C1=O (centres unmarked) [1-001, 2-mesityl-3-methoxy-5-{2-(methoxyimino)propyl}cyclopent-2-enone]	–	–	–	–	–	0 (Herbicidal ratio of 5% or lower (almost no effect))	0 (Herbicidal ratio of 5% or lower (almost no effect))	0 (Herbicidal ratio of 5% or lower (almost no effect))	0 (Herbicidal ratio of 5% or lower (almost no effect))	0 (Herbicidal ratio of 5% or lower (almost no effect))	0 (Herbicidal ratio of 5% or lower (almost no effect))	0 (Herbicidal ratio of 5% or lower (almost no effect))	0 (Herbicidal ratio of 5% or lower (almost no effect))	–	–	0 (Herbicidal ratio of 5% or lower (almost no effect))	0 (Herbicidal ratio of 5% or lower (almost no effect))	–	0 (Herbicidal ratio of 5% or lower (almost no effect))	0 (Herbicidal ratio of 5% or lower (almost no effect))	M (Abutilon theophrasti) herbicidal effect grade (Abutilon theophrasti): 0 (Herbicidal ratio of 5% or lower (almost no effect)); d (soybean) effect on crop grade (soybean [2]): 0 (Herbicidal ratio of 5% or lower (almost no effect)); b (directly sowed rice plant) effect on crop grade (rice): 0 (Herbicidal ratio of 5% or lower (almost no effect)); K (Lolium multiflorum Lam.) herbicidal effect grade (Lolium multiflorum Lam. [3]): 0 (Herbicidal ratio of 5% or lower (almost no effect)); I (Avena fatua) herbicidal effect grade (Avena fatua): 0 (Herbicidal ratio of 5% or lower (almost no effect)); f (beet) effect on crop grade (beet): 0 (Herbicidal ratio of 5% or lower (almost no effect)); e (wheat) effect on crop grade (wheat): 0 (Herbicidal ratio of 5% or lower (almost no effect))
CON=C(C)CC1CC(O)=C(c2c(C)cc(C)cc2C)C1=O (centres unmarked) [1-002, 3-hydroxy-2-mesityl-5-{2-(methoxyimino)propyl}cyclopent-2-enone]	–	–	–	–	–	5 (Herbicidal ratio of 90% or more (almost completely withered))	5 (Herbicidal ratio of 90% or more (almost completely withered))	4 (Herbicidal ratio of 70% or higher and lower than 90%)	5 (Herbicidal ratio of 90% or more (almost completely withered))	5 (Herbicidal ratio of 90% or more (almost completely withered))	5 (Herbicidal ratio of 90% or more (almost completely withered))	3 (Herbicidal ratio of 40% or higher and lower than 70%)	4 (Herbicidal ratio of 70% or higher and lower than 90%)	–	–	5 (Herbicidal ratio of 90% or more (almost completely withered))	3 (Herbicidal ratio of 40% or higher and lower than 70%)	–	5 (Herbicidal ratio of 90% or more (almost completely withered))	5 (Herbicidal ratio of 90% or more (almost completely withered))	M (Abutilon theophrasti) herbicidal effect grade (Abutilon theophrasti): 5 (Herbicidal ratio of 90% or more (almost completely withered)); d (soybean) effect on crop grade (soybean [2]): 0 (Herbicidal ratio of 5% or lower (almost no effect)); b (directly sowed rice plant) effect on crop grade (rice): 5 (Herbicidal ratio of 90% or more (almost completely withered)); K (Lolium multiflorum Lam.) herbicidal effect grade (Lolium multiflorum Lam. [3]): 5 (Herbicidal ratio of 90% or more (almost completely withered)); I (Avena fatua) herbicidal effect grade (Avena fatua): 5 (Herbicidal ratio of 90% or more (almost completely withered)); f (beet) effect on crop grade (beet): 3 (Herbicidal ratio of 40% or higher and lower than 70%); e (wheat) effect on crop grade (wheat): 4 (Herbicidal ratio of 70% or higher and lower than 90%)
CON=C(CC1CC(O)=C(c2c(C)cc(-n3cc(Cl)cn3)cc2C)C1=O)C(C)C (centres unmarked) [9-004]	5 (Herbicidal ratio of 90% or more (almost completely withered))	0 (Herbicidal ratio of 5% or lower (almost no effect))	0 (Herbicidal ratio of 5% or lower (almost no effect))	0 (Herbicidal ratio of 5% or lower (almost no effect))	4 (Herbicidal ratio of 70% or higher and lower than 90%)	–	5 (Herbicidal ratio of 90% or more (almost completely withered))	0 (Herbicidal ratio of 5% or lower (almost no effect))	5 (Herbicidal ratio of 90% or more (almost completely withered))	3 (Herbicidal ratio of 40% or higher and lower than 70%)	5 (Herbicidal ratio of 90% or more (almost completely withered))	0 (Herbicidal ratio of 5% or lower (almost no effect))	0 (Herbicidal ratio of 5% or lower (almost no effect))	2 (Herbicidal ratio of 20% or higher and lower than 40%)	0 (Herbicidal ratio of 5% or lower (almost no effect))	5 (Herbicidal ratio of 90% or more (almost completely withered))	2 (Herbicidal ratio of 20% or higher and lower than 40%)	0 (Herbicidal ratio of 5% or lower (almost no effect))	–	5 (Herbicidal ratio of 90% or more (almost completely withered))	–
